Measurements: BindingDB's records for patent US20260055108 (Hutchmed, 2026)

Target: T1, Menin [2-610] (UniProt O00255)
T1 construct: 2-610
T1 sequence (O00255 whole entry): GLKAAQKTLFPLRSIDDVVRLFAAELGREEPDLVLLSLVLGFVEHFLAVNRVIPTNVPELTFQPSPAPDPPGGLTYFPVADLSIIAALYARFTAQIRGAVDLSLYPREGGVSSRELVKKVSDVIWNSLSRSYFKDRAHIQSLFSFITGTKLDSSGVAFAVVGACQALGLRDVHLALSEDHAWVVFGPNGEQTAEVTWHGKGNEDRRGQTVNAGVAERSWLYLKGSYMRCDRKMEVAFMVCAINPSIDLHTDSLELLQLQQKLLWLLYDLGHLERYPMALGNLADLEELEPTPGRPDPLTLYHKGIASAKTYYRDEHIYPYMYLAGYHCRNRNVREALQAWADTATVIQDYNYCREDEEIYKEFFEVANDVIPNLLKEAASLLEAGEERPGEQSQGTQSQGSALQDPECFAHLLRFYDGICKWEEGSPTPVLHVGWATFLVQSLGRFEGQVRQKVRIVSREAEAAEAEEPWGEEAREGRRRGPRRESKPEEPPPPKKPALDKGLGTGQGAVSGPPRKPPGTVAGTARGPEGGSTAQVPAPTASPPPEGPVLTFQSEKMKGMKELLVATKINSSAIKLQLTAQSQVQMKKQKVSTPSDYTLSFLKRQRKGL
Assay: Fluorescence Polarization Assay
Procedure: 4 μL of 5× test compound was added to each reaction well of the 384-well plate, and the corresponding volume of 10% DMSO was added to the control wells. Except the control wells, 8 μL of Menin protein reaction solution was added to each well. The reaction solution was incubated at room temperature for 30 minutes, and then 8 μL of MLL polypeptide reaction solution was added to each well. The final concentrations of DMSO in the test compound wells and control wells were all 2%. The 384-well plate was sealed and incubated at room temperature for 30 minutes in the dark.

CCNC(=O)N1CCC(CN2CCC3(CC2)CN(c2ncnnc2Oc2ccc(F)cc2C(=O)N(CC)C(C)C)C3)CC1 [US20260055108, Compound 28]
IC50: 2.2 nM
